Experimental data taken from the NIST ThermoML archive (doi:10.1021/je050334+).

Details: Liquid, Transpiration method

CCOC(=O)c1ccccc1 [ethyl benzoate]
Details	vapor or sublimation pressure [kPa]
283.9 K	0.0071
286.9 K	0.0093
289 K	0.0113
292 K	0.0143
294.1 K	0.0174
295 K	0.0183
298.1 K	0.0239
299.1 K	0.0254
301.2 K	0.0312
304.2 K	0.039
307.2 K	0.0472
310.1 K	0.0597
312.3 K	0.0716
315.3 K	0.0862
317.3 K	0.1055
320.3 K	0.1297
323.4 K	0.1656
326.4 K	0.2016
329.5 K	0.2452
332.5 K	0.2944

COC(=O)CCCCC(=O)OC [dimethyl 1,6-hexanedioate]
Details	vapor or sublimation pressure [kPa]
293.2 K	0.00253
296.2 K	0.00336
299.2 K	0.00443
302.2 K	0.00586
305.2 K	0.0074
308.2 K	0.00991
310.2 K	0.01133
313.3 K	0.01454
316.2 K	0.01794
319.3 K	0.02356
322.2 K	0.02831
325.3 K	0.03778
328.2 K	0.04592
331.2 K	0.05704
334.2 K	0.06981
